Experimental data as given in patent publication US10669235B2, “Indole derivatives and their use as protein kinase inhibitors” (RESPIVERT LIMITED, priority 2016, dated 2020).
Where a name gives a salt, the structure may show the parent alone. Read-outs that look alike come from different tables or passages of the source.

What was measured:
PDGFRβ [1] = biological target: T1, PDGFRβ (Homo sapiens (Human), UniProt P09619); assay: PDGFRβ enzyme inhibition (ADP-Glo assay); format: biochemical; details: mean, n = 2 (nintedanib n = 34)
T1 sequence (P09619 33-1106): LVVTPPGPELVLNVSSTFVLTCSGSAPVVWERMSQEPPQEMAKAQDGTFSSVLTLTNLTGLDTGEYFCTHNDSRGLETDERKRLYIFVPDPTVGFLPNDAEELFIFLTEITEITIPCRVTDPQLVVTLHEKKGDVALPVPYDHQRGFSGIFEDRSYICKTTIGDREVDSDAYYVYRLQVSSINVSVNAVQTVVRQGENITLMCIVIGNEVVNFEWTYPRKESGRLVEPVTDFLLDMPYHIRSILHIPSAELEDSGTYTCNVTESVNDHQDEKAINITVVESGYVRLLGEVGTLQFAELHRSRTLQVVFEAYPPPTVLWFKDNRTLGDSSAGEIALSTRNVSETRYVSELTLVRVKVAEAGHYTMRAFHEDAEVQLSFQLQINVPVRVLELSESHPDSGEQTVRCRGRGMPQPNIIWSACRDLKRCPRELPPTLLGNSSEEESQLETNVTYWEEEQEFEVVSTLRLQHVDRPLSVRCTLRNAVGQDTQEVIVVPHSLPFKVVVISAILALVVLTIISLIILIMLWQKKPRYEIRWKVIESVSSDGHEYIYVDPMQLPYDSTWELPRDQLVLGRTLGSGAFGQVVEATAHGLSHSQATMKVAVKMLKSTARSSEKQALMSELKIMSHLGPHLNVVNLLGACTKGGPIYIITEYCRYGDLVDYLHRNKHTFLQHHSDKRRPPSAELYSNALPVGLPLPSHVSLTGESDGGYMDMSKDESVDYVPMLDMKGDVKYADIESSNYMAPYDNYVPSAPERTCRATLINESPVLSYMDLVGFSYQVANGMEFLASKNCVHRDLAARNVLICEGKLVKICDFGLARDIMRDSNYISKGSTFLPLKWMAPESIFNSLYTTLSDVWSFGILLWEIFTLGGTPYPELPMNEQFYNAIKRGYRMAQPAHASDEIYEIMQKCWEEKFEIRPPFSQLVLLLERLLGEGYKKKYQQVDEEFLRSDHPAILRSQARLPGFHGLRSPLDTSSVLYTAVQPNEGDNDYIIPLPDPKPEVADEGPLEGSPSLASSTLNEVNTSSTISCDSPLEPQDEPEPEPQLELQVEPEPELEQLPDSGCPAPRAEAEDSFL

PDGFRβ [2] = biological target: T1, PDGFRβ; assay: PDGF-BB induced phosphorylation of PDGFRβ in fibroblasts (MRC5, HTRF); format: cell-based; details: MRC5 cells, PDGFBB stimulation; read-out: PDGFBB-induced PDGFRβ phosphorylation in MRC5 cells (IC50)
PAMPA permeability assay = format: in vitro ADME; details: pH 7, PAMPA; for Papp at 5 h, 10 µM: pH 7, 10 μM
[3] = Pharmacokinetic measurements in rats (i.v., i.t., oral); format: in vivo; details: rat; for concentration at 0.1 h / concentration at 1.5 h / concentration at 6 h / concentration at 24 h: lung; for concentration at 0.1 h: read-out: lung concentration (nM) at time 0.1 h; for concentration at 1.5 h: read-out: lung concentration (nM) at time 1.5 h; for concentration at 6 h: read-out: lung concentration (nM) at time 6 h; for concentration at 24 h: read-out: lung concentration (nM) at time 24 h; for Kp at 0.1 h / Kp at 1.5 h / Kp at 6 h / Kp at 24 h: lung/plasma
MRC5 cells = assay: Cell viability assay in MRC5 cells (MTT)
[4] = male, CD, other: intra-tracheal
[5] = male, CD, iv, read-out: lung/plasma ratio at time 0.1 h
[6] = male, CD, iv, read-out: lung/plasma ratio at time 1.5 h
[7] = male, CD, iv, read-out: lung/plasma ratio at time 6 h
[8] = male, CD, iv, read-out: lung/plasma ratio at time 24 h
[9] = male, CD, other: intra-tracheal, read-out: lung/plasma conc ratio at time 0.1 h
[10] = i.t. dose 0.1 (nintedanib 0.42)
[11] = i.t. dose 0.1 (nintedanib 0.42), 1.5 h
[12] = i.t. dose 0.1 (nintedanib 0.42), 6 h
[13] = i.t. dose 0.1 (nintedanib 0.42), 24 h
[14] = i.v. dose 0.1 (nintedanib 0.42)
[15] = i.v. dose 0.1 (nintedanib 0.42), 1.5 h
[16] = i.v. dose 0.1 (nintedanib 0.42), 6 h
[17] = i.v. dose 0.1 (nintedanib 0.42), 24 h

## COC(=O)c1cc2c(cc1C)/C(=C(/Nc1ccc(C(=O)NCC3CCN(C)CC3)cc1)c1ccccc1)C(=O)N2 [Example 3, (Z)-Methyl 5-methyl-3-(((4-(((1-methylpiperidin-4-yl)methyl)carbamoyl)phenyl)amino)(phenyl)methylene)-2-oxoindoline-6-carboxylate, formate]
PDGFRβ [1]
  Ki: 6.86 nM
PDGFRβ [2]
  IC50: 12.7 nM
PAMPA permeability assay
  recovery at 5 hr, 10 μM: 92.4%
  Papp at 5 h, 10 µM: 0.00775 ×10⁻⁶ cm/s
[3]; male, CD, iv
  concentration at 0.1 h: 761 nM
  concentration at 1.5 h: 700 nM
  concentration at 6 h: 321 nM
  concentration at 24 h: 135 nM
[3]; [4]
  concentration at 0.1 h: 2600 nM
  concentration at 1.5 h: 4990 nM
  concentration at 6 h: 4680 nM
  concentration at 24 h: 1860 nM
[3]; [5]
  Kp at 0.1 h: 38
[3]; [6]
  Kp at 1.5 h: 154
[3]; [7]
  Kp at 6 h: 120
[3]; [8]
  Kp at 24 h: > 72
[3]; [9]
  Kp at 0.1 h: 100
[3]; male, CD, other: intra-tracheal, read-out: lung/plasma conc ratio at time 1.5 h
  Kp at 1.5 h: 1910
[3]; male, CD, other: intra-tracheal, read-out: lung/plasma conc ratio at time 6 h
  Kp at 6 h: 2150
[3]; male, CD, other: intra-tracheal, read-out: lung/plasma conc ratio at time 24 h
  Kp at 24 h: > 1000
[3]
  Lung conc i.t./i.v. Ratio at time 0.1 h: 3
[3]; 1.5 h
  Lung conc i.t./i.v. Ratio at time 1.5 h: 7
[3]; 6 h
  Lung conc i.t./i.v. Ratio at time 6 h: 15
[3]; 24 h
  Lung conc i.t./i.v. Ratio at time 24 h: 14
[3]; [10]
  BAL % administered dose at time 0.1 h: 14%
[3]; [11]
  BAL % administered dose at time 1.5 h: 1.2%
[3]; [12]
  BAL % administered dose at time 6 h: 0.7%
[3]; [13]
  BAL % administered dose at time 24 h: 0.3%
[3]; [14]
  BAL % administered dose at time 0.1 h: 0.1%
[3]; [15]
  BAL % administered dose at time 1.5 h: 0.1%
[3]; [16]
  BAL % administered dose at time 6 h: 0.03%
[3]; [17]
  BAL % administered dose at time 24 h: 0.02%
MRC5 cells
  Cell viability at 100 nM (%): 88%
  Cell viability at 300 nM (%): 86.1%
  Cell viability at 1000 nM (%): 79.5%

## COC(=O)c1cc2c(cc1C)/C(=C(/Nc1ccc(C(=O)NCCN3CCNC(=O)C3)cc1)c1ccccc1)C(=O)N2 [Example 9, (Z)-Methyl 5-methyl-2-oxo-3-(((4-((2-(3-oxopiperazin-1-yl)ethyl)carbamoyl)phenyl)amino) (phenyl)methylene)indoline-6-carboxylate]
PDGFRβ [1]
  Ki: 7.89 nM
PDGFRβ [2]
  IC50: 14.2 nM
PAMPA permeability assay
  recovery at 5 hr, 10 μM: 72.7%
  Papp at 5 h, 10 µM: 0.0146 ×10⁻⁶ cm/s
[3]; male, CD, iv
  concentration at 0.1 h: 494 nM
  concentration at 1.5 h: 174 nM
  concentration at 6 h: 235 nM
  concentration at 24 h: 502 nM
[3]; [4]
  concentration at 0.1 h: 5700 nM
  concentration at 1.5 h: 8810 nM
  concentration at 6 h: 10500 nM
  concentration at 24 h: 10500 nM
[3]; [5]
  Kp at 0.1 h: 17
[3]; [6]
  Kp at 1.5 h: 55
[3]; [7]
  Kp at 6 h: > 326
[3]; [8]
  Kp at 24 h: > 697
[3]; [9]
  Kp at 0.1 h: > 7890
[3]; male, CD, plasma, iv
  MRT: 1.1 h
  clearance: 90 mL/min/kg
  half-life: 1.1 h
[3]; male, CD, plasma, iv, read-out: Vss
  Vd: 7 L/kg
[3]
  Lung conc i.t./i.v. Ratio at time 0.1 h: 12
[3]; 1.5 h
  Lung conc i.t./i.v. Ratio at time 1.5 h: 51
[3]; 6 h
  Lung conc i.t./i.v. Ratio at time 6 h: 45
[3]; 24 h
  Lung conc i.t./i.v. Ratio at time 24 h: 21
[3]; [10]
  i.t. BAV (%): <40%
  BAL % administered dose at time 0.1 h: 13.7%
[3]; [11]
  BAL % administered dose at time 1.5 h: 5.2%
  lung/plasma conc ratio at time 1.5 h: >12197
[3]; [12]
  BAL % administered dose at time 6 h: 2.3%
  lung/plasma conc ratio at time 6 h: >14485
[3]; [13]
  BAL % administered dose at time 24 h: 0.5%
  lung/plasma conc ratio at time 24 h: >14483
[3]; [14]
  BAL % administered dose at time 0.1 h: BQL
[3]; [15]
  BAL % administered dose at time 1.5 h: BQL
[3]; [16]
  BAL % administered dose at time 6 h: BQL
[3]; [17]
  BAL % administered dose at time 24 h: BQL
[3]; oral dose 3 mg/kg
  Oral BAV (%): <2%
MRC5 cells
  Cell viability at 100 nM (%): 102%
  Cell viability at 300 nM (%): 103.6%
  Cell viability at 1000 nM (%): 97.5%
